For data set [1], the system named is HepG2. Nature of the data set: Cytotoxicity against human HepG2 cells assessed as cell viability up to 100 uM incubated for 24 hrs by MTT assay. The format is toxicity, cell-based. Particulars: hepg2, 24 h. Background: Tetrazolium dyes change colour on reduction, which living cells bring about.
The subject of data set [2] is Mus musculus. Briefly: Reversal of STZ-NA induced histological abnormalities in diabetic mouse model assessed as vacuolation and mild congestion at 10 mg/kg, po after 21 days by hematoxylin and eosin staining based microscopic assay. Format: functional, organism-based. Particulars: time 21.0 day.
For data set [3], the system named is Mus musculus. Briefly: Effect on STZ-NA induced histological abnormalities in diabetic mouse model assessed as change in appearance of liver at 10 mg/kg, po after 21 days by hematoxylin and eosin staining based microscopic assay. Format: functional, organism-based. The following applies: time 21.0 day.
Data set [4] deals with Mus musculus. Briefly: Anti-diabetic activity against STZ-NA induced diabetic Swiss Albino mouse model assessed as decrease in blood glucose level at 10 mg/kg, po measured up to 240 mins by Oral glucose tolerance test relative to control. The format is functional, organism-based.
Data set [5] has as its system Mus musculus. Nature of the data set: Anti-diabetic activity against STZ-NA induced diabetic Swiss Albino mouse model assessed as decrease in blood glucose level at 5 mg/kg, po measured up to 240 mins by Oral glucose tolerance test relative to control. Format: functional, organism-based.
For data set [6], the system named is HepG2. Particulars: dose 15 nM; time 24 hrs.
The species entered for data set [7] is Mus musculus. Particulars: dose 5 mg/kg; route po; time 21 day.
Description: Reversal of STZ-NA induced total ROS formation in diabetic mouse model assessed as decrease in ROS production by measuring mean fluorescence intensity at 5 mg/kg, po after 21 days (Rvb = 287228 No_unit)
The nature of data set [8]: Toxicity in STZ-NA induced diabetic Swiss Albino mouse model assessed as decrease in body weight at 10 mg/kg, po measured after 21 days. The format is organism-based. Particulars: in vivo, 504 h, time 21 day.
The target of the next data set is Dipeptidyl peptidase 4 (Homo sapiens, UniProt P27487). Nature of the data set: Inhibition of human recombinant DPP-4 using Gly-Pro-AMC as fluorogenic substrate by measuring fluorescence intensity incubated for 30 mins.
The test system of data set [9] is Mus musculus. Briefly: Reversal of STZ-NA induced increase in DPP-4 expression in po dosed diabetic mouse model assessed as decrease in DPP-4 expression in cellular region after 21 days by Immunohistochemical analysis. Format: functional, organism-based. Particulars: dose 5-10 mg/kg, time 21.0 day.
For data set [10], the species on record is Mus musculus. The following applies: dose 10 mg/kg; route po; time 21 day.
For data set [11], the system named is Mus musculus. Nature of the data set: Reversal of STZ-NA induced histological abnormalities in diabetic mouse model assessed as vacuoles at 10 mg/kg, po after 21 days by hematoxylin and eosin staining based microscopic assay. The following applies: time 21.0 day. The format is functional, organism-based.
Data set [12] can be described thus: Toxicity in STZ-NA induced diabetic Swiss Albino mouse model assessed as decrease in body weight at 5 mg/kg, po measured after 21 days. Format: organism-based. The following applies: in vivo, 504 h, time 21 day.
For data set [13], the species on record is Mus musculus. Particulars: dose 10 mg/kg; route po; time 21 day. The source holds these as a separate data set.
Description: Reversal of STZ-NA induced total ROS formation in diabetic mouse model assessed as decrease in ROS production by measuring mean fluorescence intensity at 10 mg/kg, po after 21 days (Rvb = 287228 No_unit)
For data set [14], the system named is Mus musculus. Nature of the data set: Reversal of STZ-NA induced increase in DPP-4 mRNA production in po dosed diabetic mouse model assessed as decrease in DPP-4 mRNA expression in liver tissue by measuring mean fluorescence intensity after 21 days by RT-qPCR analysis. The format is functional, organism-based. Particulars: dose 5-10 mg/kg, time 21.0 day. A general note: Real-time PCR tracks product formation cycle by cycle.

Data set [15] concerns Mus musculus. Nature of the data set: Acute anti-hyperglycemic activity against STZ-NA induced diabetic Swiss Albino mouse model assessed as reduction in blood glucose level at 10 mg/kg, po measured up to 24 hrs. Format: functional, organism-based.
The species named for data set [16] is Mus musculus. Particulars: dose 5 mg/kg; route po; time 21 day. The source holds these as a separate data set.
Data set [17] concerns Mus musculus. Briefly: Reversal of STZ-NA induced histological abnormalities in diabetic mouse model assessed as hepatic portal vein at 10 mg/kg, po after 21 days by hematoxylin and eosin staining based microscopic assay. The format is functional, organism-based. Particulars: time 21.0 day.
Data set [18] is filed under the species Mus musculus. The following applies: dose 5 mg/kg; route po; time 21 day. The source holds these as a separate data set.
Description: Reversal of STZ-NA induced increase in DPP-4 production in diabetic mouse model assessed as decrease in DPP-4 expression in liver tissue by measuring mean fluorescence intensity at 5 mg/kg, po after 21 days by flow cytometry (Rvb = 322245 No_unit)
The subject of data set [19] is Mus musculus. Briefly: Effect on STZ-NA induced histological abnormalities in diabetic mouse model assessed as change in hepatocyte density at 10 mg/kg, po after 21 days by hematoxylin and eosin staining based microscopic assay. The following applies: time 21.0 day. The format is functional, organism-based.
Data set [20] deals with Mus musculus. Nature of the data set: Reversal of STZ-NA induced histological abnormalities in diabetic mouse model assessed as enlarged extracellular gaps at 10 mg/kg, po after 21 days by hematoxylin and eosin staining based microscopic assay. Format: functional, organism-based. Particulars: time 21.0 day.
Data set [21] deals with Mus musculus. Briefly: Effect on STZ-NA induced histological abnormalities in diabetic mouse model assessed as change in hepatocyte structure at 10 mg/kg, po after 21 days by hematoxylin and eosin staining based microscopic assay. The format is functional, organism-based. The following applies: time 21.0 day.
The test system of data set [22] is Mus musculus. Briefly: Chronic anti-hyperglycemic activity against STZ-NA induced diabetic Swiss Albino mouse model assessed as reduction in blood glucose level at 10 mg/kg, po measured up to 21 days. The format is functional, organism-based. Particulars: time <= 21.0 day.
Data set [23] relates to Mus musculus. Nature of the data set: Effect on STZ-NA induced histological abnormalities in diabetic mouse model assessed as change in hepatocyte size at 10 mg/kg, po after 21 days by hematoxylin and eosin staining based microscopic assay. Particulars: time 21.0 day. The format is functional, organism-based.
Data set [24] has as its system HepG2. Particulars: dose 15 nM; time 24 hrs. The source holds these as a separate data set.
Data set [25] is filed under the species Mus musculus. The following applies: dose 10 mg/kg; route po; time 21 day. The source holds these as a separate data set.
Description: Reversal of STZ-NA induced increase in DPP-4 production in diabetic mouse model assessed as decrease in DPP-4 expression in liver tissue by measuring mean fluorescence intensity at 10 mg/kg, po after 21 days by flow cytometry (Rvb = 322245 No_unit)
For data set [26], the system named is Mus musculus. Nature of the data set: Acute anti-hyperglycemic activity against STZ-NA induced diabetic Swiss Albino mouse model assessed as reduction in blood glucose level at 5 mg/kg, po measured up to 24 hrs. Format: functional, organism-based.
The subject of data set [27] is Mus musculus. Nature of the data set: Chronic anti-hyperglycemic activity against STZ-NA induced diabetic Swiss Albino mouse model assessed as reduction in blood glucose level at 5 mg/kg, po measured up to 21 days. The format is functional, organism-based. Particulars: time <= 21.0 day.

As a reminder, the IC50 is the concentration that gives 50% inhibition.

Activity calls are given as the source filed them. The rule behind the calls is not given here.

Chain of Dipeptidyl peptidase 4 (P27487 whole entry): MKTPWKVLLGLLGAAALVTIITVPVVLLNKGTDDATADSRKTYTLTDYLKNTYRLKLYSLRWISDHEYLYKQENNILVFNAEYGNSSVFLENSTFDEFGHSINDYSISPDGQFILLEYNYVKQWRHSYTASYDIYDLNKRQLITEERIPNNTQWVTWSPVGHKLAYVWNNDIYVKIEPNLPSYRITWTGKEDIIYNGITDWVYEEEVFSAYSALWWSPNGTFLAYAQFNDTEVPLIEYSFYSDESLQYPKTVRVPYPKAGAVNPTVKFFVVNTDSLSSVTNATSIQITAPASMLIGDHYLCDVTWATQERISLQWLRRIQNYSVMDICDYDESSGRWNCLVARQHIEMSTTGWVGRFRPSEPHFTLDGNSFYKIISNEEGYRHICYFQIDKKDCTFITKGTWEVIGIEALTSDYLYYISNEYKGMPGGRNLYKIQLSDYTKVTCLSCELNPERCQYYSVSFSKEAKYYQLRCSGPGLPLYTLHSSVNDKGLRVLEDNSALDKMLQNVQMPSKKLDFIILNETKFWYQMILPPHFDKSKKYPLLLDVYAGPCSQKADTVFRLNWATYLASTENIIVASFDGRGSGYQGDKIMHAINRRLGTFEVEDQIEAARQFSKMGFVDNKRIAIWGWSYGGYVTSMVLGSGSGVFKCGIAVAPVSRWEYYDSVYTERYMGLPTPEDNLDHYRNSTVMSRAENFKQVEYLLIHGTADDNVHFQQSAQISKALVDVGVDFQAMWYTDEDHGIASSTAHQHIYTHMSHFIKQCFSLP

`C=CCn1c(=O)c2c(ncn2Cc2ccc(C#N)cc2)n(Cc2ccccc2)c1=O`: in the data set on HepG2 [1], the Activity entry is on record as “Non-toxic”.
As for `Cn1c(=O)[nH]c(=O)c2c1nc(Oc1ccc([N+](=O)[O-])cc1)n2Cc1ccc(C#N)cc1`, the Activity entry in the data set with HepG2 [1] is on record as “Non-toxic”.
In the case of `Cn1c(=O)c2c(nc(N3CCOCC3)n2Cc2ccccc2)n(C)c1=O`, the outcome with Mus musculus [2], with Mus musculus [3], with Mus musculus [19], in the data set on Mus musculus [21] and in the data set with Mus musculus [23] was inactive. In addition, the result in the data set with Mus musculus [4], in the data set with Mus musculus [5], in the data set on Mus musculus [11] and with Mus musculus [20] was Active. The Flu intensity in the data set with HepG2 [6] worked out at 1460; in the data set listed under Mus musculus [7], 82220; in the data set filed under Mus musculus [10] it was 4811; in the data set listed under Mus musculus [13], 49658; in the data set filed under Mus musculus [16], 11036; in the data set filed under Mus musculus [18], 240545. Moreover, the Flu intensity was found to be 6930 with HepG2 [24] and 89888 in the data set filed under Mus musculus [25]. Also, the Activity entry in data set [8] was “Toxic”; with Mus musculus [9] it was “Dose-dependent-effect”; in [12] it was “Toxic”; with Mus musculus [14] it was “Dose-dependent-effect”; with Mus musculus [15], “Active; Results Comparable To Linagliptin”; in the data set with Mus musculus [17], “Active; Hepatic Portal Vein Looked Similar To Normal Group”. The Activity entry with HepG2 [1] is “Non-toxic”; in the data set with Mus musculus [22], “Active; Results Comparable To Linagliptin”. In addition, on Dipeptidyl peptidase 4, the IC50 turned out to be 15.7 nM.
For the compound `COc1cccc(Cn2c(N3CCOCC3)nc3c2c(=O)n(C)c(=O)n3C)c1`, at Dipeptidyl peptidase 4, the IC50 came out at 27.9 nM. Moreover, the Activity result in the data set with HepG2 [1] is “Non-toxic”.
For `Cn1c(=O)c2c(nc(N3CCOCC3)n2Cc2ccc(F)cc2)n(C)c1=O`, the Activity result in the data set on HepG2 [1] is listed as “Non-toxic”.
On the same count and under the same terms, under `Cc1ccc(Cn2cnc3c2c(=O)n(Cc2ccc(C#N)cc2)c(=O)n3C)cc1` stands “Non-toxic”.
Consider `Cn1c(=O)[nH]c(=O)c2c1nc(N1CCOCC1)n2Cc1ccc(Cl)cc1`, for which the Activity entry with HepG2 [1] is “Non-toxic”.
In the case of `Cn1c(=O)c2c(nc(Oc3ccc([N+](=O)[O-])cc3)n2Cc2ccc(Cl)cc2Cl)n(C)c1=O`, the Activity entry in the data set with HepG2 [1] is reported as “Non-toxic”.
Regarding `CC#CCn1c(N2CCC[C@@H](N)C2)nc2c1c(=O)n(Cc1nc(C)c3ccccc3n1)c(=O)n2C` [LINAGLIPTIN], the outcome in the data set with Mus musculus [26], with Mus musculus [5] and in the data set with Mus musculus [27] was Active. The Flu intensity in the data set with HepG2 [6] came out at 1212; in the data set listed under Mus musculus [7], 15930; in the data set listed under Mus musculus [16], 2520; in the data set filed under Mus musculus [18] it was 20334; in the data set with HepG2 [24], 3493. The Activity result in [12] is “Toxic”.
For the compound `Cn1c(=O)c2c(nc(Oc3ccc(Br)cc3)n2CC(=O)c2ccc(-c3ccccc3)cc2)n(C)c1=O`, the Activity result in the data set with HepG2 [1] was “Non-toxic”.
On to `Cn1c(=O)c2c(nc(Oc3ccc(C=O)cc3)n2Cc2ccc(Cl)cc2Cl)n(C)c1=O`, for which, in the data set on HepG2 [1], the Activity entry was “Non-toxic”.
As to `Cn1c(=O)c2c(nc(N3CCOCC3)n2Cc2cccc([N+](=O)[O-])c2)n(C)c1=O`, the Activity result in the data set with HepG2 [1] is on record as “Non-toxic”.
Regarding `Cn1c(=O)n(Cc2ccccc2)c(=O)c2c1nc(Oc1ccc([N+](=O)[O-])cc1)n2Cc1ccc(C#N)cc1`, the Activity entry in the data set on HepG2 [1] is “Non-toxic”.
The same measure, in the same setting: under `Cn1c(=O)c2c(nc(Oc3ccc([N+](=O)[O-])cc3)n2CC(=O)c2ccc(-c3ccccc3)cc2)n(C)c1=O` stands “Non-toxic”; under `Cn1c(=O)c2c(nc(Oc3ccc4ccc(=O)oc4c3)n2CC(=O)c2ccc(-c3ccccc3)cc2)n(C)c1=O`, “Non-toxic”.
`Cn1c(=O)c2c(nc(Oc3ccc(C=O)cc3)n2Cc2ccc(F)cc2)n(C)c1=O`: the Activity result with HepG2 [1] was “Non-toxic”.
On to `C=CCn1c(Oc2ccc([N+](=O)[O-])cc2)nc2c1c(=O)n(Cc1nc(C)c3ccccc3n1)c(=O)n2C`, for which the result in the data set with Mus musculus [2], in the data set with Mus musculus [3], in the data set on Mus musculus [19], in the data set with Mus musculus [21] and in the data set on Mus musculus [23] was inactive. Further, the result with Mus musculus [4], in the data set with Mus musculus [5], with Mus musculus [11] and with Mus musculus [20] was Active. Moreover, the Flu intensity was determined as 3565 in the data set on HepG2 [6]; 165558 in the data set listed under Mus musculus [7]; 9136 in the data set filed under Mus musculus [10]; 138121 in the data set filed under Mus musculus [13]; 36602 in the data set filed under Mus musculus [16]; 248748 in the data set listed under Mus musculus [18]. For the same compound, the results for the Flu intensity with HepG2 [24] and in the data set filed under Mus musculus [25] were 82988 and 154821, respectively. The Activity entry in data set [8] is “Toxic”; in the data set with Mus musculus [9] it was “Dose-dependent-effect”; in data set [12], “Toxic”; in the data set on Mus musculus [14], “Dose-dependent-effect”; with Mus musculus [17], “Active; Hepatic Portal Vein Looked Similar To Normal Group”; with HepG2 [1], “Non-toxic”.

The values are drawn from ChEMBL document CHEMBL6078720, “Design and synthesis of novel 3,7-dihydro-1H-purine-2,6-diones as DPP-4 inhibitors: An in silico, in vitro and in vivo approach” (Eur J Med Chem, 2025).
